Experimental data published in paper PMC6779907, “Bengamides display potent activity against drug-resistant Mycobacterium tuberculosis” (Scientific Reports, 2019).

Key:
Format in all cases: biochemical
EfMetAP1b [1] = target: T1, EfMetAP1b (Enterococcus faecalis, UniProt Q832M5); experiment: fluorescence, hydrolysis of methionyl aminomethylcoumarin
T1 construct: gene map; expressed in E. coli and purified
T1 sequence (Q832M5 1-254): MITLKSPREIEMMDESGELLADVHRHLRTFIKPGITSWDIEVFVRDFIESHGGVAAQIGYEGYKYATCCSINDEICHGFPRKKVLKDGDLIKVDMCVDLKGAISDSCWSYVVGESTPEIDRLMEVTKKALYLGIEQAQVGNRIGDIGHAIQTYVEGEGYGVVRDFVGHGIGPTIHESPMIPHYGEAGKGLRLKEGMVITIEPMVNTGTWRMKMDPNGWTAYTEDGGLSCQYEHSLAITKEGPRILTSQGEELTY

HsMetAP1b [2] = target: T2, HsMetAP1b (Homo sapiens, UniProt P53582); experiment: as above
T2 construct: gene METAP1; expressed in E. coli and purified

MtMetAP1c [3] = target: T3, MtMetAP1c (Mycobacterium tuberculosis, UniProt P9WK19); experiment: as above
T3 construct: gene map
T3 sequence (P9WK19 whole entry, looked up): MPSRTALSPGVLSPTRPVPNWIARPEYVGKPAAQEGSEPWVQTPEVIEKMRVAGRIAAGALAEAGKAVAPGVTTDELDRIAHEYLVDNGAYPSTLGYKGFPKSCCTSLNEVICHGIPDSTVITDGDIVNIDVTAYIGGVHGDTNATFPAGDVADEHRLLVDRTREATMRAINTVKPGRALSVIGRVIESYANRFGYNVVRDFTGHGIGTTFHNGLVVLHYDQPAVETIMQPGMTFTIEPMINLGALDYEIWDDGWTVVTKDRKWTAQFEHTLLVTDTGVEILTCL

MtMetAP1c [4] = target: T3, MtMetAP1c; settings: room temperature; metal not given
HsMetAP1b [5] = target: T2, HsMetAP1b; experiment: fluorescence, substrate hydrolysis; settings: room temperature; metal not given
EfMetAP1b [6] = target: T1, EfMetAP1b; experiment: fluorescence, substrate hydrolysis; settings: room temperature; metal not given

| Compound | inhibition at 50 µM (EfMetAP1b [1]) [%] | inhibition at 50 µM (HsMetAP1b [2]) [%] | inhibition at 50 µM (MtMetAP1c [3]) [%] | fluorescence, substrate hydrolysis (MtMetAP1c [4]) | fluorescence, substrate hydrolysis (HsMetAP1b [5]) | fluorescence, substrate hydrolysis (EfMetAP1b [6]) |
| --- | --- | --- | --- | --- | --- | --- |
| CCCCCCCCCCCCCC(=O)O[C@H]1CC[C@H](NC(=O)[C@H](OC)[C@H](O)[C@@H](O)[C@H](O)/C=C/C(C)C)C(=O)N(C)C1 [F12, bengamide B] | 83.3 | 84.7 | 72.8 |  |  |  |
| CSCC[C@H](N)C(=O)Nc1ccc2c(C)cc(=O)oc2c1 [methionyl aminomethylcoumarin] |  |  |  | enzymatic activity was monitored by fluorescence readings following hydrolysis of the fluorogenic substrate, methionyl aminomethylcoumarin | enzymatic activity was monitored by fluorescence readings following hydrolysis of the fluorogenic substrate, methionyl aminomethylcoumarin | enzymatic activity was monitored by fluorescence readings following hydrolysis of the fluorogenic substrate, methionyl aminomethylcoumarin |
